This passage reports TGI results from PubChem BioAssay (NCI).

Structures are written as SMILES.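 The compound was tested at five concentrations on cells cultured in 96-well plates, with a 48-hour exposure period. TGI denotes the concentration required for complete inhibition of growth.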

Holding throughout (experiment): inhibition of tumour cell growth, NCI panel, 48 h
Assay [1] concerns SR leukemia.
Assay [2] concerns RPMI-8226 leukemia.
Assay [3] relates to UACC-62 melanoma.
In assay [4] the test system is A498 renal.
In assay [5] the test system is COLO 205 colon.
For assay [6], the system named is OVCAR-5 ovarian.
Assay [7] relates to NCI-H460 lung.
Assay [8] relates to MOLT-4 leukemia.
Assay [9] relates to CAKI-1 renal.
In assay [10] the test system is U251 CNS.
Assay [11] has as its system IGROV1 ovarian.
In assay [12] the test system is TK-10 renal.
Assay [13] concerns SF-295 CNS.
Assay [14] deals with NCI-H226 lung.
Assay [15] deals with HT29 colon.
For assay [16], the system named is K-562 leukemia.
The test system of assay [17] is SN12C renal.
Assay [18] has as its system SNB-19 CNS.
Assay [19] relates to HOP-62 NSCLC.
Assay [20] deals with BT-549 breast.

For the compound `O=Cc1ccc2c(c1)CC1(C2)Cc2ccc(C=O)cc2C1`, the TGI in assay [1] was 6.77 µM; in [2], 22.1 µM; in assay [3], 23.8 µM; in assay [4], 69.7 µM; in [5], 70.9 µM; in [6] it was greater than 100 µM. The TGI in assay [7] was 32.8 µM; in [8], 7.11 µM; in [9], greater than 100 µM; in [10], 41.7 µM; in assay [11], 54.5 µM; in [12] it was 65 µM. The TGI in assay [13] was greater than 70.4 µM; in assay [14], 62.6 µM; in assay [15], 53.6 µM; in assay [16], 12.9 µM; in assay [17], 64.5 µM; in [18], 89.2 µM. This compound also yielded a TGI in assay [19] of 37.2 µM.

Turning to `O=c1[nH]n(Cc2ccccc2CCl)c2ccc([N+](=O)[O-])cc12`, the TGI was greater than 100 µM in assay [1]; greater than 100 µM in [2]; greater than 100 µM in assay [3]; greater than 100 µM in [4]; 62.5 µM in assay [5]; greater than 100 µM in assay [6]. Moreover, the TGI was 95.8 µM in assay [7]; 90.8 µM in assay [8]; 63.3 µM in assay [9]; greater than 100 µM in [10]; greater than 100 µM in [11]; greater than 100 µM in [12]. Moreover, the TGI in assay [13], in assay [14], in [15], in assay [16], in [17] and in assay [18] was greater than 100 µM throughout. This compound also gave a TGI in [19] greater than 100 µM.

Take `CC(C)C(Cl)CC/C(CBr)=C(\Cl)CCl` (stereo unspecified): the TGI was found to be 5 µM in [2]; 6.16 µM in [3]; 35.7 µM in assay [4]; 12.8 µM in assay [5]; 31.2 µM in assay [6]; 29.3 µM in assay [7]. The TGI was greater than 20.3 µM in assay [8]; 17.9 µM in assay [9]; 23.1 µM in [10]; 4.09 µM in assay [11]; 28 µM in assay [12]; 3.99 µM in [20]. In addition, the TGI in [13] came out at 30.6 µM; in assay [14], 22.2 µM; in [15], 11.7 µM; in [16], 3.69 µM; in assay [17], 10.2 µM; in assay [18], 28.3 µM. The TGI in [19] is 31.1 µM.

As to `COc1ccc(-c2cc(-c3ccco3)c(C#N)c(=S)n2C2OC(CO)C(O)C(O)C2O)cc1` (stereo unspecified), the TGI in assay [2], in assay [4], in assay [5], in assay [6], in assay [7] and in [8] was greater than 100 µM throughout. Moreover, the TGI in [9], in assay [10], in assay [11], in [12], in assay [20] and in assay [13] was greater than 100 µM in each case. Besides, the TGI in assay [14], in [15], in assay [16], in [17], in assay [18] and in assay [19] was greater than 100 µM in each case.

Regarding `C/C(=C/CNc1ncnc2c1ncn2CCC#N)CO`, the TGI in assay [1], in assay [2], in assay [3], in assay [4], in assay [5] and in assay [6] was greater than 100 µM throughout. The TGI in [7], in [8], in assay [9], in assay [11], in [12] and in assay [13] was greater than 100 µM in each case. In addition, the TGI in assay [14], in assay [15], in [16], in [17], in [18] and in [19] was greater than 100 µM throughout.

Consider `CNC(=O)CN(CC(N)=O)C(=O)NC`, for which the TGI in assay [1], in assay [2], in assay [3], in [4], in assay [5] and in assay [6] was greater than 100 µM each time. In addition, the TGI in assay [7], in assay [8], in assay [9], in assay [10], in [11] and in [12] was greater than 100 µM in each case. Besides, the TGI in [13], in assay [14], in [15], in [16], in assay [18] and in assay [19] was greater than 100 µM throughout.

For the compound `Cc1cc2nc3c(C#N)c(-c4ccccc4)cc(Nc4ccc(F)cc4)n3c2cc1C`, the TGI was greater than 100 µM in [2]; 93.5 µM in [4]; greater than 100 µM in assay [5]; 45.2 µM in [6]; greater than 100 µM in [8]; greater than 100 µM in assay [9]. Also, the TGI was 16.3 µM in [10]; 39.3 µM in assay [12]; 56.3 µM in [20]; 76.2 µM in [13]; 73.7 µM in [14]; greater than 100 µM in [15]. In addition, the TGI was determined as 53.7 µM in assay [17] and 36.6 µM in assay [19].

Regarding `COC(=O)/C=C(\S/C(=C(/c1ccc(OC)cc1)n1cc(C(=O)OC)c(C(=O)OC)n1)c1ccc(OC)cc1)C(=O)OC`, the TGI in assay [2] is greater than 100 µM; in [3], greater than 100 µM; in assay [4] it was greater than 100 µM; in assay [5] it was 8.64 µM; in [6], 69.7 µM; in [7], greater than 100 µM. In addition, the TGI in [8] was greater than 100 µM; in assay [9], 6.41 µM; in assay [10], greater than 100 µM; in assay [11] it was 22.5 µM; in assay [12], 19 µM; in assay [20], greater than 100 µM. The TGI in assay [13] is greater than 100 µM; in assay [14], greater than 100 µM; in assay [15], 30.7 µM; in assay [16], greater than 100 µM; in [17] it was 51.4 µM; in assay [18], greater than 100 µM. The same compound yielded a TGI in assay [19] greater than 100 µM.

Consider `COc1ccc(C(=O)N2CCN(c3ccc4[nH]c(=O)oc4c3)CC2)cc1`, for which the TGI in [1], in assay [2], in assay [3], in assay [5], in [6] and in assay [7] was greater than 100 µM throughout. Further, the TGI in [8], in [10], in assay [11], in assay [12], in [20] and in assay [13] was greater than 100 µM throughout. Besides, the TGI in [14], in assay [15], in assay [17], in assay [18] and in assay [19] was greater than 100 µM throughout.

As for `Cc1ccccc1NC(=O)/C(C#N)=N\Nc1nc[nH]c1C(N)=O`, the TGI in [2], in [3], in [5], in assay [6], in assay [7] and in [8] was greater than 100 µM throughout. The TGI was 18.2 µM in assay [9]; greater than 100 µM in assay [10]; greater than 100 µM in assay [11]; greater than 100 µM in assay [12]; greater than 100 µM in [20]; greater than 100 µM in assay [13]. Also, the TGI in assay [14], in assay [15], in assay [16], in assay [17], in assay [18] and in assay [19] was greater than 100 µM each time.

With `CC1=CCC[C@]2(C)C1=CC(=O)O[C@H]2c1ccoc1`, the TGI in assay [1], in [2], in assay [3], in assay [4], in assay [5] and in assay [6] was greater than 100 µM in each case. The TGI in assay [7], in assay [8], in assay [9], in assay [10], in assay [11] and in assay [12] was greater than 100 µM throughout. In addition, the TGI in assay [13], in assay [14], in assay [15], in assay [16], in assay [17] and in [18] was greater than 100 µM each time. This compound returned a TGI in [19] greater than 100 µM.

`O=C(/C=C/c1ccccc1)CCC1C(=O)NC(=O)NC1=O`: the TGI in [2], in assay [3], in assay [4], in assay [5], in assay [6] and in assay [7] was greater than 100 µM throughout. In addition, the TGI in [8], in assay [9], in assay [10], in [11], in assay [12] and in assay [20] was greater than 100 µM each time. Moreover, the TGI in assay [13], in assay [14], in assay [15], in assay [16], in assay [17] and in assay [18] was greater than 100 µM each time.
